Reference: ChEMBL document CHEMBL4152331, “Thiodipeptides targeting the intestinal oligopeptide transporter as a general approach to improving oral drug delivery” (Eur J Med Chem, 2018)
pKi: −log10 of the molar value.

Experiments:
[1] = target: T1, Solute carrier family 15 member 1 (Homo sapiens, UniProt P46059); test: Ratio of substrate activity of FSA to compound at PepT1 in human Caco2 cells assessed as apparent permeability form apical to basolateral side at 2 mM in presence of Gly-Gln after 1 hr by HPLC analysis; settings: caco-2, 1 h, 2000 µM
T1 sequence (P46059 whole entry): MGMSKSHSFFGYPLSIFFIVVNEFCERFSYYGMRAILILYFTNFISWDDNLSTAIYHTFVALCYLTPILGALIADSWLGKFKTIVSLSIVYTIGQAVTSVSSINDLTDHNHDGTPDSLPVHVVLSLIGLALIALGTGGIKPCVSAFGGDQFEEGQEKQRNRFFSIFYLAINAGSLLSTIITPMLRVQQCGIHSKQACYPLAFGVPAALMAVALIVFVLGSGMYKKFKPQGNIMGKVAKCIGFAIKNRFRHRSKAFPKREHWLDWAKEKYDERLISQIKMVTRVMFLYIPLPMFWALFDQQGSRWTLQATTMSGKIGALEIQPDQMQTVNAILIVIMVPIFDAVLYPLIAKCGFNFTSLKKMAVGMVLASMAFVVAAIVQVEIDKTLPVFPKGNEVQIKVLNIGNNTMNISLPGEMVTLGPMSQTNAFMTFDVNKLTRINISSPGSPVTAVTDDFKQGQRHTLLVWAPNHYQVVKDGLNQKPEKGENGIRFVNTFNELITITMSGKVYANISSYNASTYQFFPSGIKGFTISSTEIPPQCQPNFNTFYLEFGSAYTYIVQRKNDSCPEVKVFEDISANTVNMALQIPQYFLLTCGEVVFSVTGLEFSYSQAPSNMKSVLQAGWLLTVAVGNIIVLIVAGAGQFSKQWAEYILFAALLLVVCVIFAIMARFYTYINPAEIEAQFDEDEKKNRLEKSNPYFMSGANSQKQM

[2] = Apparent permeability of the compound in human Caco2 cells from apical to basolateral side at 2 mM after 1 hr by HPLC analysis; settings: Caco-2
[3] = target: T2, PepT1 (Homo sapiens, UniProt P46059); test: Substrate activity at PepT1 in human Caco2 cells assessed as apparent permeability form apical to basolateral side at 2 mM in presence of Gly-Gln after 1 hr by HPLC analysis; settings: Caco-2, with Gly-Gln
T2 sequence (P46059 whole entry): T1 sequence (P46059 whole entry)

[4] = Half life in rat liver homogenate at 0.5 mM after 24 hrs by HPLC analysis; format: ADME, tissue-based
[5] = system: Caco-2; test: Ratio of apparent permeability of FSA to compound in human Caco2 cells from apical to basolateral side at 2 mM after 1 hr by HPLC analysis; settings: caco-2, 1 h, 2000 µM
[6] = system: Rattus norvegicus; test: Bioavailability in Sprague-Dawley rat at 6 mg/kg, po by LC-MS/MS analysis; settings: in vivo
[7] = target: T3, Solute carrier family 15 member 1 (Oryctolagus cuniculus, UniProt P36836); test: Binding affinity to rabbit PepT1 expressed in Xenopus laevis oocytes assessed as inhibition of [3H]-D-Phe-L-Gln uptake by Michaelis-Menten kinetics analysis; format: ADME, cell-based
T3 sequence (P36836 whole entry): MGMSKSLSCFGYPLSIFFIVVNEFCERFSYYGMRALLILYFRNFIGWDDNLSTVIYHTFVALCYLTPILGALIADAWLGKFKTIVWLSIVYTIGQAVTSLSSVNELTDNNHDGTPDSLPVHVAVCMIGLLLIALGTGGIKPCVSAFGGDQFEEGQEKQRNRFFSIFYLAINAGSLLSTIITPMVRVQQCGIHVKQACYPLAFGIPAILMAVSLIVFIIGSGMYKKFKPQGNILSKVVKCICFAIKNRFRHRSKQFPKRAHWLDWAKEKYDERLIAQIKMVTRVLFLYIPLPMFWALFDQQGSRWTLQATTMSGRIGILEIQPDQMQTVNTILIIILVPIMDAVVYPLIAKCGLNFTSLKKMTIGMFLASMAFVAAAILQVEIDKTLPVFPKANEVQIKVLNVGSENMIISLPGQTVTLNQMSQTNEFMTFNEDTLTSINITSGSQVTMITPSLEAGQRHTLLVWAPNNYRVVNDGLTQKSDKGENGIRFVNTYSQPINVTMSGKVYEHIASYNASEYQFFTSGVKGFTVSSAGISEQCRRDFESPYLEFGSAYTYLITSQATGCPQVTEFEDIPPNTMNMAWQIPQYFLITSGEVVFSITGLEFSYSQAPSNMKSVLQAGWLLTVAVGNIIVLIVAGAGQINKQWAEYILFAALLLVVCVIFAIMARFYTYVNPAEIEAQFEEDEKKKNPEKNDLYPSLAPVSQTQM

[8] = Stability of the compound in pH 5.5 buffer; format: physicochemical
[9] = system: Rattus norvegicus; test: AUC in Sprague-Dawley rat assessed as ibuprofen release level at 10 mg/kg, po by LC-MS/MS analysis; settings: in vivo
[10] = system: Rattus norvegicus; test: Cmax in Sprague-Dawley rat assessed as ibuprofen release level at 10 mg/kg, po by LC-MS/MS analysis; settings: in vivo
[11] = system: Rattus norvegicus; test: Tmax in Sprague-Dawley rat assessed as ibuprofen release level at 10 mg/kg, po by LC-MS/MS analysis; settings: in vivo
[12] = system: Rattus norvegicus; test: Relative bioavailability in Sprague-Dawley rat assessed as ibuprofen release level at 10 mg/kg, po by LC-MS/MS analysis; settings: in vivo

Question: With `CC(C)c1cccc(C(C)C)c1OC(=O)C[C@H](NC(=S)[C@H](C)N)C(=O)O` as the compound, how does the Ratio [1] read?
Answer: 0.89

Question: What about the Papp A→B at 1 h, 2000 µM [2] of the same compound?
Answer: 0.5 ×10⁻⁶ cm/s

Question: And the Papp A→B at 1 h, 2000 µM [3]?
Answer: 0.5 ×10⁻⁶ cm/s

Question: What about the half-life at 500 µM [4] of the same compound?
Answer: 7.3 h

Question: What about the Ratio [5] of the same compound?
Answer: 0.41

Question: With `CC(C)Cc1ccc(C(C)C(=O)O)cc1` (configuration not stated) [IBUPROFEN] as the compound, how does the F [6] read?
Answer: 100%

Question: For `CC(=O)Oc1ccccc1C(=O)OCCOCCOCCOC(=O)C[C@H](NC(=S)[C@H](C)N)C(=O)O`, which Ki [7] is on record?
Answer: Nd(Unstable)

Question: What about the Stability [8] of the same compound?
Answer: Unstable

Question: For `COc1ccc2cc(CC/C(C)=N/OCCOC(=O)C[C@H](NC(=S)[C@H](C)N)C(=O)O)ccc2c1`, which Ratio [1] is on record?
Answer: 1.3

Question: What about the pKi ([7]; read-out: Ki) of the same compound?
Answer: 4.10

Question: And the Papp A→B at 1 h, 2000 µM [2]?
Answer: 9.7 ×10⁻⁶ cm/s

Question: What about the Papp A→B at 1 h, 2000 µM [3] of the same compound?
Answer: 4.4 ×10⁻⁶ cm/s

Question: And the Ratio [5]?
Answer: 1.94

Question: For `C[C@H](NC(=O)[C@@H](N)Cc1ccccc1)C(N)=S`, which Papp A→B at 1 h, 2000 µM [3] is on record?
Answer: 1.9 ×10⁻⁶ cm/s

Question: For `CC(C)Cc1ccc([C@@H](C)C(=O)OC[C@H](NC(=S)[C@H](C)N)C(=O)O)cc1`, which Ratio [1] is on record?
Answer: 1.07

Question: What about the Papp A→B at 1 h, 2000 µM [3] of the same compound?
Answer: 2.1 ×10⁻⁶ cm/s

Question: And the half-life at 500 µM [4]?
Answer: 17.9 h

Question: And the Ratio [5]?
Answer: 1.29

Question: And the AUC [9]?
Answer: 700 ng·h/mL

Question: What about the Cmax [10] of the same compound?
Answer: 200 ng/mL

Question: And the Tmax [11]?
Answer: 3.2 h

Question: What about the F [12] of the same compound?
Answer: 2.8%

Question: What does the source list for `C[C@H](N)C(=S)N[C@@H](CC(=O)OCCOCn1cnc2c(=O)[nH]c(N)nc21)C(=O)O`?
Answer: Ki [7]: Nd(Unstable); Stability [8]: Unstable

Question: Which Ratio [1] does the source give for `C[C@H](N)C(=S)N[C@@H](COC(=O)CC1(CN)CCCCC1)C(=O)O` here?
Answer: 0.69

Question: And the Papp A→B at 1 h, 2000 µM [3]?
Answer: 0.4 ×10⁻⁶ cm/s

Question: And the Ratio [5]?
Answer: 0.46
